Literature values, collected in patent publication US11147777B1, “Methods and formulations for efficacious pain relief by transdermal delivery of cannabidiol” (CHARLOTTE'S WEB, INC., priority 2017, dated 2021).

Target: T1, mTRPM8 (Mus musculus, UniProt Q8R4D5)
T1 construct: expressed in transfected cells; host or cells: HEK293
Settings: normalized to the efficacy of icilin, as disclosed by Behrendt et al.

T1 sequence (Q8R4D5 whole entry): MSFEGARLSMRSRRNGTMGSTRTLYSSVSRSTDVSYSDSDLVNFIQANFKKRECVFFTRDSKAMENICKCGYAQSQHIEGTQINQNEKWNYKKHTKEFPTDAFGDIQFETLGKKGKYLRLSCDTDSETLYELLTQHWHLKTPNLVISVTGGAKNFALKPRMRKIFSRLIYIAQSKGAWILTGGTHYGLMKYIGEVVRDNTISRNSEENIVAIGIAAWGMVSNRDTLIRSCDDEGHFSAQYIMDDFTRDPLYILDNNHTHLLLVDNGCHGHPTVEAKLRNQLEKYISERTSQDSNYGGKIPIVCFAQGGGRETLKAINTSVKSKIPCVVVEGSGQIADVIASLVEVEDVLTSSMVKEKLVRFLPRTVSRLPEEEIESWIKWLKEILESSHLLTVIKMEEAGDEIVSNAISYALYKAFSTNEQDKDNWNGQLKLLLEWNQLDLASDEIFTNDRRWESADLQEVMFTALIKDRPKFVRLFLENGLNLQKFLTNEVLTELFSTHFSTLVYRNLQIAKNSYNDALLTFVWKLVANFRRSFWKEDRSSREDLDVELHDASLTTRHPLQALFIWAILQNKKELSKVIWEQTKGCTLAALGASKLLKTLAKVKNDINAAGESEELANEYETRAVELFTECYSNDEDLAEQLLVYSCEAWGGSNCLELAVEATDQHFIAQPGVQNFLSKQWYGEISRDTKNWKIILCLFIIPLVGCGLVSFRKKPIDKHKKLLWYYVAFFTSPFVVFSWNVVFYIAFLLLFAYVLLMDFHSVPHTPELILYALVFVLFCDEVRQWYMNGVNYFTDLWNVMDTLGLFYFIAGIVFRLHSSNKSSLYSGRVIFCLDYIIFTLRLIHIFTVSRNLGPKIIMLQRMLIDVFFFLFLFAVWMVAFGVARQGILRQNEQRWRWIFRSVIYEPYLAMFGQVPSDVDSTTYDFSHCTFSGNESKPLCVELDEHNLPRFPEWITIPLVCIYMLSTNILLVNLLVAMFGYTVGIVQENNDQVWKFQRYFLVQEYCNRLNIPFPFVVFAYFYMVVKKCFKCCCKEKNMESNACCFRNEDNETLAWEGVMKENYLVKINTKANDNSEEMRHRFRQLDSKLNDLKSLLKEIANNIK

In the case of CC1CCC(C(C)C)C(O)C1 (stereo not shown) [menthol], the “relative efficacy as TRPM8 agonist on icilin-normalized scale (100 menthol = 70 icilin)” value is given as 70.
